Consider 72 compounds from PubChem BioAssay AID504646 (Southern Research Specialized Biocontainment Screening …, 2011).

Assay [1] relates to Mycobacterium tuberculosis growth in 7H9 media. Description: M. tuberculosis growth inhibition in 7H9, dose response, 7H9 media, purified and synthesized samples, set 3 (AID 504646). Conditions: for IC90: 90% growth inhibition concentration.
Assay in assay [2]: as above
Particulars: Mycobacterium tuberculosis growth in 7H9 media; at 25 µM (top of the series).

SMILES strings stand for the structures. “And” between values parts separate entries of the source, which are not always exact repeats. Identical values can stand only once. The source made the active and inactive calls. How the calls were made is not given here. Peptide text beside a SMILES is read from it. * marks the point of attachment. Cbz = O=C(OCc1ccccc1)*

One may read the IC50 as the concentration that gives 50% inhibition. One may read the IC90 as the concentration needed for an effect of 90%. `CCOC(=O)CSc1ncnc2c1nnn2-c1ccc(F)cc1`: in assay [1], the IC50 was 2460 nM and the IC90 was 4350 nM.
The matching figures for `CNc1nc(SCc2ccccc2Cl)nc2c1CCCC2`: 1150 nM and 3010 nM.
Regarding `Cc1cccc(N2CCN(C(=O)c3ccc(CNc4c(N5CCC(C)CC5)c(=O)c4=O)cc3)CC2C)c1` (stereo unspecified), in assay [2], the growth inhibition is -1.5% (inactive).
As to `CC(C)CCNC(=O)CSc1nc2ccccc2c(=O)[nH]1`, in assay [1], the IC50 was 1190 nM and the IC90 amounted to 2350 nM.
For the compound `CC1CCCN(C(=O)c2ccc(CNc3c(N4CCCCC4)c(=O)c3=O)cc2)C1` (stereo unspecified), in assay [1], the IC50 is 1390 nM and the IC90 was above 25000 nM.
For `CC(C)NC(=O)c1sc(=S)n2c1[nH]c(=O)c1ccc(C(=O)NCCc3ccc(Cl)cc3)cc12`, in that order: 110 nM and 300 nM.
For the compound `CCOC(=O)CSc1ncnc2c1cnn2-c1ccccc1`, in assay [1], the IC50 is 11200 nM and the IC90 was above 25000 nM.
For `Cc1ccc(NC(=O)C2C3/C=C\CCCCC32)cc1C` (stereo unspecified), in that order: 1430 nM and above 25000 nM.
For `Cc1ccc2ccc3ccc(C)nc3c2n1`, in that order: 180 nM and 480 nM.
Turning to `CCC(Sc1ncnc2c1nnn2-c1ccc(F)cc1)C(=O)OC` (stereo unspecified), in assay [1], the IC50 is 9590 nM and the IC90 was above 25000 nM.
With `COC(=O)CCc1nc2c(C#N)c(-c3ccc(Cl)cc3)ccn2n1`, in assay [1], the IC50 was 2580 nM and the IC90 came out at 3660 nM.
The matching figures for `CCOC(=O)c1ccc(NC(=O)Cn2ncc(Cl)c(Cl)c2=O)cc1`: 330 nM and 1200 nM.
Regarding `COC(=O)C(C)Sc1ncnc2c1nnn2-c1ccc(F)cc1` (stereo unspecified), in assay [1], the IC50 was 1880 nM and the IC90 was 4640 nM.
Take `CCOC(=O)COc1ccc(/C=C2\NC(=S)N(CC)C2=O)cc1`: in assay [1], the IC50 was 1940 nM and the IC90 turned out to be 3700 nM.
Take `O=C(c1ccc(CNc2c(N3CCCC3)c(=O)c2=O)cc1)N1CC=C(c2ccccc2)CC1`: in assay [1], the IC50 was 2310 nM and the IC90 is above 25000 nM.
The matching figures for `COC(=O)CSc1ncnc2c1cnn2-c1ccc(C)cc1C`: 4720 nM and 7300 nM.
For `Cc1nc(SCC(=O)NC2CCCCC2)[nH]c(=O)c1C`, in assay [1], the IC50 was 340 nM and 1860 nM; the IC90 is 830 nM and 3170 nM.
`CCOC(=O)CSc1ncnc2c1cnn2-c1ccc(C)cc1C`: in assay [1], the IC50 was 4630 nM and the IC90 is 7470 nM.
Take `COC(=O)C(C)Oc1ccc(Cc2ncc(C(F)(F)F)cc2Cl)cc1` (stereo unspecified): in assay [1], the IC50 is 2660 nM and the IC90 is 4350 nM.
Consider `Cc1cc(C)n2nc(N)c(N=Nc3ccccc3)c2n1`, for which, in assay [1], the IC50 is 2730 nM and the IC90 is 3690 nM.
For `O=C(c1ccc(CNc2c(N3CCCC3)c(=O)c2=O)cc1)N1CCc2ccccc2C1`, in assay [1], the IC50 is 3620 nM and the IC90 amounted to 5790 nM.
On to `COc1ccc(-n2nnc3c(SCC(=O)OCc4ccccc4)ncnc32)cc1`, for which, in assay [1], the IC50 is 1630 nM and the IC90 was above 25000 nM.
The matching figures for `CC1CC(C)CN(C(=O)c2ccc(CNc3c(N4CCCC4)c(=O)c3=O)cc2)C1` (stereo unspecified): 5140 nM and above 25000 nM.
For `CC(=O)c1ccc(NC(=O)c2ccc(CNc3c(N4CCOCC4)c(=O)c3=O)cc2)cc1`, in that order: 12400 nM and above 25000 nM.
Consider `COC(=O)C1CC(=O)N(c2ccc(OCc3ccccc3Cl)cc2)C1` (stereo unspecified), for which, in assay [1], the IC50 is 470 nM and the IC90 was determined as 2740 nM.
Take `CCOC(=O)C(C)Sc1ncnc2c1nnn2-c1ccc(F)cc1` (stereo unspecified): in assay [1], the IC50 is 850 nM and 3120 nM; the IC90 is 3420 nM and 8230 nM.
`Nc1c(C(=O)NC2CCCCC2)nsc1C(=O)OCC(=O)NC1CCCCC1`: in assay [1], the IC50 was 1110 nM and the IC90 was determined as 2460 nM.
The matching figures for `Cc1cccc(/C=C/C(=O)c2ccc([N+](=O)[O-])o2)c1`: 100 nM and 170 nM.
For `CC(C)OC(=O)CSc1ncnc2c1cnn2-c1ccccc1`, in that order: 10500 nM and above 25000 nM.
The matching figures for `CCc1ccc(/C=C2/C(=O)N(C)C(=S)N2CC(=O)OC)s1`: 1120 nM and 4630 nM.
Take `CC[N+](C)(CC)CCCCOc1ccc2c(c1)C(=O)c1cc(OCCCC[N+](C)(CC)CC)ccc1-2`: in assay [1], the IC50 was 1420 nM and the IC90 came out at 1980 nM.
For `Cc1ccc(C(=O)N/N=C(/CC(=O)c2cccs2)C(F)(F)F)cc1`, in that order: 1560 nM and 2370 nM.
The compound `O=C(c1ccc(CNc2c(N3CCCC3)c(=O)c2=O)cc1)N1CCN(C2CCCCC2)CC1` had an IC90 in assay [1] above 25000 nM.
Regarding `CCOc1ccc(-c2cc(C)[n+](CCc3ccc(OC)c(OC)c3)c(-c3ccc(OCC)cc3)c2)cc1`, in assay [1], the IC50 is 600 nM and the IC90 amounted to 900 nM.
The matching figures for `CCc1c(C)nc(SCC(=O)Nc2ccc3c(c2)OCCO3)[nH]c1=O`: 14100 nM and above 25000 nM.
In the case of `CCOC(=O)CSc1ncnc2c1cnn2-c1ccc(C)cc1`, in assay [1], the IC50 is 6950 nM and the IC90 is above 25000 nM.
As to `c1ccc(/N=C2\N=C(Nc3ccccn3)c3ccccc32)nc1`, in assay [1], the IC50 is 160 nM and the IC90 was found to be 250 nM.
The matching figures for `O=C(NCCc1ccc(Cl)cc1)C1CCC(CNc2c(N3CCCCC3)c(=O)c2=O)CC1` (stereo unspecified): 20400 nM and above 25000 nM.
The matching figures for `CCOC(=O)CSc1ncnc2c1cnn2-c1ccc(Cl)cc1`: 4320 nM and above 25000 nM.
For `COC(=O)c1cc(=O)n(-c2ccc(F)cc2)c(=Nc2ccc(F)cc2)s1`, in that order: 360 nM and 1180 nM.
Consider `COc1cc(NC(=O)C/C(C)=N/NC(=O)c2ccccn2)c(OC)cc1Cl`, for which, in assay [1], the IC50 is 1650 nM and the IC90 worked out at 4490 nM.
Consider `O=C(NCC1COc2ccccc2O1)C1CCC(CNc2c(N3CCCCC3)c(=O)c2=O)CC1` (stereo unspecified), for which, in assay [1], the IC90 is above 25000 nM.
In the case of `Cc1cccc(N2CCN(C(=O)c3ccc(CNc4c(N5CCC(C)CC5)c(=O)c4=O)cc3)CC2)c1C`, in assay [1], the IC50 was 24500 nM and the IC90 is above 25000 nM.
With `COc1ccc(N2CCN(C(=O)c3ccc(CNc4c(N5CCOCC5)c(=O)c4=O)cc3)CC2)cc1`, in assay [1], the IC50 is 2160 nM and the IC90 is above 25000 nM.
On to `O=C(NCCc1ccc(Cl)cc1)c1ccc(CNc2c(N3CCOCC3)c(=O)c2=O)cc1`, for which, in assay [1], the IC50 is 4710 nM and the IC90 is 6880 nM.
For the compound `O=C(/C=C/c1ccccc1)N1CCN(CCN2C(=O)c3cccc4cccc(c34)C2=O)CC1`, in assay [1], the IC50 is 2160 nM and the IC90 is 4970 nM.
For the compound `O=C(c1ccc(CNc2c(N3CCOCC3)c(=O)c2=O)cc1)N1CC=C(c2ccccc2)CC1`, in assay [1], the IC50 is 660 nM and the IC90 came out at 830 nM.
Turning to `CC(=NCc1ccc2c(c1)OCO2)C1=C(O)c2ccccc2C1=O`, in assay [1], the IC50 is 950 nM and the IC90 is above 25000 nM.
Take `Cc1cc(Br)ccc1NC(=O)c1cnc(N2CCN(c3ccccn3)CC2)c2ccccc12`: in assay [1], the IC50 is 280 nM and the IC90 turned out to be 2610 nM.
Take `O=C(CSc1nc2ccccc2c(=O)[nH]1)NC1CCCCC1`: in assay [1], the IC50 was 40 nM and the IC90 came out at 80 nM.
As for `O=C(CSc1nc2ccccc2c(=O)[nH]1)NCc1ccc(Cl)cc1`, in assay [1], the IC50 was 380 nM and 1300 nM; the IC90 is 670 nM and 2020 nM.
`CC1CC(C)CN(C(=O)C2CCC(CNc3c(N4CCCCC4)c(=O)c3=O)CC2)C1` (stereo unspecified): in assay [1], the IC50 was 7760 nM and the IC90 was above 25000 nM.
As to `CCC(C)Nc1ccc(NC(C)CC)cc1` (stereo unspecified), in assay [1], the IC50 is 610 nM and the IC90 was determined as 980 nM.
Consider `CCc1c(C)nc(SCC(=O)NC2CCCC2)[nH]c1=O`, for which, in assay [1], the IC50 is 1500 nM and the IC90 came out at 2850 nM.
The matching figures for `O=C1C(Br)=Cc2cccc3cccc1c23`: 160 nM and 790 nM.
With `COC(=O)C(C)Oc1ccc(-c2nccc(-c3ccccn3)n2)cc1` (stereo unspecified), in assay [1], the IC50 is 2110 nM and the IC90 amounted to 4130 nM.
The matching figures for `Cc1ccc2c(c1)c(C1=c3ccccc3=NC1=O)c(O)n2C`: 840 nM and 3120 nM.
Take `O=C(/C=C\c1cccs1)N1CCN(Cc2ccc3c(c2)OCO3)CC1`: in assay [1], the IC50 is 940 nM and the 90% effect concentration (IC90) is above 25000 nM.
As for `CCOC(=O)CNC(=O)[C@H](Cc1ccccc1)NC(=O)OCc1ccccc1` (Cbz-Phe-Gly-OEt), in assay [1], the IC50 was 1060 nM and the IC90 was found to be 2960 nM.
For `Cc1ccc(NC(=O)COC(=O)CCc2c[nH]c3ccccc23)cc1[N+](=O)[O-]`, in that order: 1160 nM and 4230 nM.
The matching figures for `CCOC(=O)COn1c2c(c3c4no[n+]([O-])c4ccc31)CCCC2`: 1960 nM and 3170 nM.
The matching figures for `O=C(NCC(c1cccs1)N1CCOCC1)c1cc([N+](=O)[O-])cc([N+](=O)[O-])c1` (stereo unspecified): 210 nM and 580 nM.
For the compound `CCOc1ccc(NC(=O)CSc2nc(O)c(C)c(=O)n2-c2ccc(F)cc2)cc1`, in assay [1], the IC50 is 18600 nM and the IC90 is above 25000 nM.
For `CCOC1OC(=O)C(Cl)=C1Nc1ccccc1C` (stereo unspecified), in that order: 2310 nM and above 25000 nM.
As to `CC1CCCN(C(=O)C2CCC(CNc3c(N4CCCCC4)c(=O)c3=O)CC2)C1` (stereo unspecified), in assay [1], the IC50 was 11500 nM and the IC90 is above 25000 nM.
The matching figures for `Cc1cccc(-c2oc3ccc(-c4ccc5c(c4)OCO5)cc3c2C#Cc2cncn2C)c1`: 1780 nM and 2690 nM.
For `Cc1nn2c(NCc3ccccn3)cc(C(C)C)nc2c1-c1ccccc1`, in that order: 1220 nM and 1730 nM.
For `CC1CCN(C(=O)c2ccc(CNc3c(N4CCCC4)c(=O)c3=O)cc2)CC1`, in that order: 5810 nM and 6650 nM.
Consider `S=c1nc[nH]c2nc[nH]c12`, for which, in assay [1], the IC50 was 1380 nM and the IC90 was 1960 nM.
`CC1CCN(C(=O)C2CCN(c3nnc(-n4cccc4)s3)CC2)CC1`: in assay [1], the IC50 is 1550 nM and the IC90 stood at 2910 nM.
The matching figures for `Cc1nc(SCC(=O)NC2CCCC2)[nH]c(=O)c1C`: 7970 nM and 13400 nM.
The matching figures for `O=C(CSc1nc2c(c(=O)[nH]1)CCC2)Nc1ccc(F)cc1`: 10000 nM and 17100 nM.
